Reference: ChEMBL document CHEMBL3526141, “Characterization of human liver enzymes involved in the biotransformation of boceprevir, a hepatitis C virus protease inhibitor” (Drug Metab Dispos, 2011)
Each block holds one compound with its values, some of them ahead of it.

Assays:
[1] = test system: Liver cytosol; experiment: (§1) Drug metabolism in human liver cytosol at 20 uM assessed as (1R,2S,5S)-N-((2S,3R)-4-amino-1-cyclobutyl-3-hydroxy-4-oxobutan-2-yl)-3-((S)-2-(3-tert-butylureido)-3,3-dimethylbutanoyl)-6,6-dimethyl-3-azabicyclo[3.1.0]hexane-2-carboxamide formation in presence of flufenamic acid by LC-MS/MS/FSA method; assay type: ADME
[2] = test system: Liver cytosol; experiment: as §1, with “formation at 20 uM after 60 mins” for “formation”, “AKR inhibitor ibuprofen” for “flufenamic acid”; assay type: ADME; conditions: 1 h
[3] = test system: Liver cytosol; experiment: (§2) Drug metabolism in human liver cytosol at 20 uM assessed as (1R,2S,5S)-N-((2S,3R)-4-amino-1-cyclobutyl-3-hydroxy-4-oxobutan-2-yl)-3-((S)-2-(3-tert-butylureido)-3,3-dimethylbutanoyl)-6,6-dimethyl-3-azabicyclo[3.1.0]hexane-2-carboxamide formation in presence of phenolphthalein by LC-MS/MS/FSA method; assay type: ADME
[4] = Drug excretion in human feces assessed as oxidative metabolites level; assay type: ADME; design: dosed compound name [14C]boceprevir
[5] = molecular target: T1, Aldo-keto reductase family 1 member C3 (Homo sapiens, UniProt P42330); experiment: Activity of human recombinant AKR1C3 expressed in HEK293 cells assessed as ratio of Vmax to Km for (1R,2S,5S)-N-((2S,3R)-4-amino-1-cyclobutyl-3-hydroxy-4-oxobutan-2-yl)-3-((S)-2-(3-tert-butylureido)-3,3-dimethylbutanoyl)-6,6-dimethyl-3-azabicyclo[3.1.0]hexane-2-carboxamide formation per mg protein after 120 mins in presence of NADPH by LC-MS/MS/FSA method; assay type: ADME, cell-based; conditions: hek293, 2 h
T1 sequence (P42330 whole entry): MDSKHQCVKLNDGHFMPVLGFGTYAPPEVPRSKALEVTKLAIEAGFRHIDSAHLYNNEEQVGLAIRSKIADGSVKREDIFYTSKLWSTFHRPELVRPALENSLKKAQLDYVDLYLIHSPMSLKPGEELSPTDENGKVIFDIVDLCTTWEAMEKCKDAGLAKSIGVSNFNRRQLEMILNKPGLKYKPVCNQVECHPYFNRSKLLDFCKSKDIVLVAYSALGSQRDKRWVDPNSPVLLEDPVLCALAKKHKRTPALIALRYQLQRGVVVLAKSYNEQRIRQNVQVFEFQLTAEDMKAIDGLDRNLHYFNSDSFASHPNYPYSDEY

[6] = test system: Liver cytosol; experiment: as §2, with “formation at 20 uM after 60 mins” for “formation”, “AKR inhibitor diflunisal” for “phenolphthalein”; assay type: ADME; conditions: 1 h
[7] = Drug metabolism in human liver S9 fraction at 20 uM assessed as (1R,2S,5S)-N-((2S,3R)-4-amino-1-cyclobutyl-3-hydroxy-4-oxobutan-2-yl)-3-((S)-2-(3-tert-butylureido)-3,3-dimethylbutanoyl)-6,6-dimethyl-3-azabicyclo[3.1.0]hexane-2-carboxamide formation in presence of quercetin by LC-MS/MS/FSA method; assay type: ADME, subcellular; conditions: s9, 20 µM
[8] = molecular target: T1, Aldo-keto reductase family 1 member C3; experiment: Drug metabolism in human recombinant […] HEK293 cells treated with 20 uM boceprevir assessed as 1 mM ibuprofen-mediated inhibition of AKR1C3-mediated metabolite formation after 120 mins in presence of NADPH by LC-MS/MS/FSA method; assay type: ADME, cell-based; design: interact cpd dose 1 mM; conditions: hek293, 2 h
[9] = molecular target: T1, Aldo-keto reductase family 1 member C3; experiment: Drug metabolism in human recombinant […] HEK293 cells treated with 20 uM boceprevir assessed as 100 uM flufenamic acid-mediated inhibition of AKR1C3-mediated metabolite formation after 120 mins in presence of NADPH by LC-MS/MS/FSA method; assay type: ADME, cell-based; design: interact cpd dose 100 uM; conditions: hek293, 2 h
[10] = molecular target: T2, Aldo-keto reductase family 1 member C2 (Homo sapiens, UniProt P52895); experiment: Drug metabolism in human recombinant AKR1C2 expressing HEK293 cells treated with 20 uM boceprevir assessed as 1 mM ibuprofen-mediated inhibition of AKR1C2-mediated metabolite formation after 120 mins in presence of NADPH by LC-MS/MS/FSA method; assay type: ADME, cell-based; design: interact cpd dose 1 mM; conditions: hek293, 2 h
T2 sequence (P52895 whole entry): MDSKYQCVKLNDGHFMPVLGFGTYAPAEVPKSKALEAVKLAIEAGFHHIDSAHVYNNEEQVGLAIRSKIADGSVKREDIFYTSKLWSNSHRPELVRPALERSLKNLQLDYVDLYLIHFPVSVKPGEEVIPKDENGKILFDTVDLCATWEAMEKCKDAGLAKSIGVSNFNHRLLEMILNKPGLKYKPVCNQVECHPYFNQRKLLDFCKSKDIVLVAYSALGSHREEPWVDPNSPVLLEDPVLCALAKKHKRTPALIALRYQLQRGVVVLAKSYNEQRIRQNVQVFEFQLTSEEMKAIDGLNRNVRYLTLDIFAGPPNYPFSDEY

[11] = test system: Liver cytosol; experiment: Drug metabolism in human liver cytosol at 20 uM assessed as (1R,2S,5S)-N-((2R,3R)-4-amino-1-cyclobutyl-3-hydroxy-4-oxobutan-2-yl)-3-((S)-2-(3-tert-butylureido)-3,3-dimethylbutanoyl)-6,6-dimethyl-3-azabicyclo[3.1.0]hexane-2-carboxamide formation at 20 uM after 60 mins in presence of AKR inhibitor ibuprofen by LC-MS/MS/FSA method; assay type: ADME; conditions: 1 h

Compound recovery [1]: metabolite_not_detected
Compound recovery [2]: metabolite_not_detected
Compound recovery [3]: metabolite_not_detected
Radiolabel recovery [4]: 50%
Vmax/Km [5]: 14.67 µL/min
Compound recovery [6]: metabolite_not_detected
Compound recovery [7]: metabolite_not_detected
SMILES: CC(C)(C)NC(=O)N[C@H](C(=O)N1C[C@H]2[C@@H]([C@H]1C(=O)NC(CC1CCC1)C(=O)C(N)=O)C2(C)C)C(C)(C)C (stereo partly specified) [BOCEPREVIR]

inhibition (INH) [8]: 55%
inhibition (INH) [9]: 93%
inhibition (INH) [10]: > 89%
SMILES: CC(C)(C)NC(=O)N[C@H](C(=O)N1C[C@H]2[C@@H]([C@H]1C(=O)N[C@@H](CC1CCC1)[C@@H](O)C(N)=O)C2(C)C)C(C)(C)C

Compound recovery [11]: metabolite_not_detected
SMILES: CC(C)(C)NC(=O)N[C@H](C(=O)N1C[C@H]2[C@@H]([C@H]1C(=O)N[C@H](CC1CCC1)C(=O)C(N)=O)C2(C)C)C(C)(C)C
